Measured values as given in EP1107982B1, “[…] COMPLEXES OF 1,2-(CIS)-DIOL CYCLIC PEPTIDES” (Eli Lilly & Company, priority 1998, dated 2000).
*1 amine or outer side, *2 acyl side, *3 side chain or, on linkers, in order; H or OH if unused. Where a SMILES comes first, the peptide text is derived from it. Bridges are numbered along the chain shown (N, C = ends). [ ]: non-standard residue; d: D form. The star is where a group is joined. pTerphenylCO(4''-OnC5H11) = CCCCCOc1ccc(-c2ccc(-c3ccc(C(=O)*)cc3)cc2)cc1; Orn(4R-OH,5R-OH) = O=C([C@H](C[C@@H](O)[C@@H](O)N[*:3])N[*:1])[*:2]; hTyr(3S-OH,4S-OH) = N[C@H](C(=O)O)[C@H](O)[C@@H](O)c1ccc(O)cc1; Pro(3S-OH,4S-Me) = C[C@H]1CN[C@H](C(=O)O)[C@H]1O; Hyp = O=C(O)[C@@H]1C[C@@H](O)CN1

Legend:
[1] = Solubility of Compound C1 in the presence of m-APBA (suspension, centrifugation, HPLC of supernatant); format: physicochemical; conditions: for appearance of aqueous solution: 30 mg/ml
Procedure: (§1) Unless indicated otherwise, all chemicals can be acquired from commercial sources (i.e., Aldrich Chemical, Sigma, etc.) in reagent grade or better. Centrifugation was performed using an IEC benchtop clinical centrifuge equipped with six-place swinging-bucket rotor (for samples > 1.5 ml) and an Eppendorf tabletop centri fuge model 5415C equipped with standard 18-place rotor (for samples ≤ 1.5 ml). HPLC analyses were performed using a Hewlett Packard Liquid Chromatograph Model 1090 equipped with a 0.46 x 25 cm Zorbax™ SB-C8 column. All injections were 10 µl, followed by gradient elution from 40-100% acetonitrile (AcN) over 25 minutes and UV detection at 280 nm. Unless otherwise stated, samples were diluted in 0.25 N acetic acid/AcN prior to injection to facilitate decomplexation and ensure solubility in the HPLC solvent system. All alkaline pH adjustments were made by addition of a 1:1 mixture of ammonium hydroxide and 50% sodium hydroxide. Measurements were taken with a Beckman φ40 pH meter calibrated with pH 7 and pH 10 standards.
Crude C1 was suspended at 50 mg/ml (65% potency: 32.5 mg/ml, or 28.5 mM) in 4 ml of either 100 mM m-APBA or 100 mM ammonium bicarbonate (control) at pH 5.0 and pH 9.0. The samples were stirred at room temperature for 2 hours, at which time aliquots were removed and assayed both before and after centrifugation for five minutes at […]. All samples were diluted 50-fold prior to HPLC analysis.
At low pH (≤ 8.0), solid suspensions of Compound C1 in m-APBA and in ammonium bicarbonate were visually identical. Both were opaque and contained varying amounts of solid, insoluble material. However, when the pH was adjusted to 9.0 dramatic differences in appearance between the two samples was observed within approximately 30 minutes. The aqueous ammonium bicarbonate control was beige in color and completely opaque; whereas, the sample containing m-APBA turned a transparent, dark brown. When the mixtures were subjected to centrifugation for 5 minutes at 16,000 x g and the resulting supernatants quantified by HPLC analysis, the concentration of C1 present in the m-APBA supernatant was 23.76 mg/ml (94% of that in the original suspension) and only 2.27 mg/ml (10% of the original suspension) was present in the ammonium bicarbonate control supernatant.

[2] = Stability of Compound C1 in m-APBA at alkaline pH (HPLC main peak purity); format: physicochemical
Procedure: as §1
Compound C1 was suspended at 100 mg/ml (65% potency: 65 mg/ml (57 mM) in either 250 mM m-APBA or water (control). Separate samples were adjusted to pH 8.0, 8.5, 9.0, 9.5 and 10.0. Aliquots for time-point analysis were removed and diluted 100-fold in 100 mM acetic acid/methanol prior to HPLC injection. Stability was assessed by analysis of main peak purity, since degradation products are known to elute within the HPLC chromatographic window.

[3] = m-APBA replaced with boric acid (borate complex)

For `CCCCCOc1ccc(-c2ccc(-c3ccc(C(=O)N[C@H]4C[C@@H](O)[C@@H](O)NC(=O)[C@@H]5[C@@H](O)[C@@H](C)CN5C(=O)[C@H]([C@@H](C)O)NC(=O)[C@H]([C@H](O)[C@@H](O)c5ccc(O)cc5)NC(=O)[C@@H]5C[C@@H](O)CN5C(=O)[C@H]([C@@H](C)O)NC4=O)cc3)cc2)cc1` [Compound C1] ({pTerphenylCO(4''-OnC5H11)}-[Orn(4R-OH,5R-OH)]T[Hyp][hTyr(3S-OH,4S-OH)]T[Pro(3S-OH,4S-Me)]; lactam 1-C), the “concentration in supernatant as % of the original suspension” value ([1]; 100 mM ammonium bicarbonate control, pH 9.0) was 10%, the solubility thermodynamic at 2 h ([1]; 100 mM ammonium bicarbonate control, pH 9.0, room temperature, crude C1 suspended at 50 mg/ml (32.5 mg/ml), after centrifugation, read-out: concentration of C1 present in the supernatant) was 2270 µg/mL and the “concentration in supernatant as % of that in the original suspension” value ([1]; 100 mM m-APBA, pH 9.0) was 94%. For the same compound, the “concentration of C1 present in the supernatant” value ([1]; 100 mM m-APBA, pH 9.0, room temperature, crude C1 suspended at 50 mg/ml (32.5 mg/ml), after centrifugation) was 23760 µg/mL, the “appearance of aqueous solution” value ([1]; boronate complex) was “transparent solution” and the increase in solubility ([1]; in the presence of m-aminophenyl boronic acid at pH 9.0 in aqueous solution) was 10 fold. For the same compound, the solubility of complex [1, 3] was “increased solubility”, the solubility of complex ([1]; m-APBA replaced with p-carboxyphenyl boronic acid (boronate complex)) was “increased solubility” and the “appearance of aqueous solution” value ([1]; non-complexed) was “opaque slurry”. The “purity (main peak)” value ([2]; 250 mM m-APBA, pH 9.5, after 17 hours) was over 70%, the “purity (main peak, of the total peak area)” value ([2]; aqueous control (water), pH 9.5, after 9 hours) was “less than 70%” and the “chemical stability in comparison to the aqueous control” value ([2]; in the presence of m-APBA, alkaline pH) was “enhanced chemical stability”. The stability of complex [2, 3] was “very stable” and the stability of complex ([2]; p-carboxyphenylboronic acid used instead of m-APBA) was “did not appear to be as stable”.
